According to publication PMC10112504, “Novel 4-thiophenyl-pyrazole, pyridine, and pyrimidine derivatives as potential antitumor candidates targeting both EGFR and VEGFR-2; design, synthesis, biological evaluations, and in silico studies” (RSC Advances, 2023):
Where two headings read alike, the source gives them in different places.

Tests used:
C. albicans = assay: Antifungal activity, inhibition zone approach; type: cell-based, Candida albicans; conditions: for C. albicans Diameter of inhibition zone (mm): Fungi; for C. albicans % Activity index: ketoconazole = 100; for antimicrobial activity with C. albicans, in words: authors' grading of Table 2 values, key not given
HepG-2 = assay: Anti-proliferative activity, SRB colorimetric assay; type: cell-based; conditions: for IC50: HepG-2 cancer cell line, SRB assay, read-out: Cell lines (IC50 μM) HepG-2; for anti-proliferative activity against HepG-2, in words: authors' grading of Table 1 values, key not given
MCF-7 = assay: as above; type: cell-based; conditions: for IC50: Homo sapiens, MCF7, MCF-7 cancer cell line, SRB assay, read-out: Cell lines (IC50 μM) MCF-7; for anti-proliferative activity against MCF-7, in words: authors' grading of Table 1 values, key not given
B. subtilis = assay: Antibacterial activity, inhibition zone approach; type: cell-based, Bacillus subtilis; conditions: for B. subtilis Diameter of inhibition zone (mm): Gram-positive bacteria; for antimicrobial activity with B. subtilis, in words: authors' grading of Table 2 values, key not given; for B. subtilis % Activity index: gentamicin = 100
P. aeuroginosa = assay: Antibacterial activity, inhibition zone approach; type: cell-based, Pseudomonas aeuroginosa; conditions: for P. aeuroginosa Diameter of inhibition zone (mm): Gram-negative bacteria; for antimicrobial activity with P. aeuroginosa, in words: authors' grading of Table 2 values, key not given; for P. aeuroginosa % Activity index: gentamicin = 100
E. coli = assay: Antibacterial activity, inhibition zone approach; type: cell-based, Escherichia coli; conditions: for E. coli Diameter of inhibition zone (mm): Gram-negative bacteria; for antimicrobial activity with E. coli, in words: authors' grading of Table 2 values, key not given; for E. coli % Activity index: gentamicin = 100
A. flavus = assay: Antifungal activity, inhibition zone approach; type: cell-based, Aspergillus flavus; conditions: for A. flavus Diameter of inhibition zone (mm): Fungi; for antimicrobial activity with A. flavus, in words: authors' grading of Table 2 values, key not given; for A. flavus % Activity index: ketoconazole = 100
S. aureus = assay: Antibacterial activity, inhibition zone approach; type: cell-based, Staphylococcus aureus; conditions: for S. aureus Diameter of inhibition zone (mm): Gram-positive bacteria; for antimicrobial activity with S. aureus, in words: authors' grading of Table 2 values, key not given; for S. aureus % Activity index: gentamicin = 100

Structure (SMILES)	C. albicans Diameter of inhibition zone (mm) (C. albicans)	C. albicans % Activity index (C. albicans) [%]	IC50 (HepG-2; Homo sapiens, HepG2) [µM]	IC50 (MCF-7) [µM]	melting point [°C]	B. subtilis Diameter of inhibition zone (mm) (B. subtilis)	P. aeuroginosa Diameter of inhibition zone (mm) (P. aeuroginosa)	E. coli Diameter of inhibition zone (mm) (E. coli)	A. flavus Diameter of inhibition zone (mm) (A. flavus)	S. aureus Diameter of inhibition zone (mm) (S. aureus)	B. subtilis % Activity index (B. subtilis) [%]	P. aeuroginosa % Activity index (P. aeuroginosa) [%]	E. coli % Activity index (E. coli) [%]	A. flavus % Activity index (A. flavus) [%]	S. aureus % Activity index (S. aureus) [%]	further results
O=C(/C=C/c1cccs1)c1ccc(O)cc1 [1a, (E)-1-(4-hydroxyphenyl)-3-(thiophen-2-yl)prop-2-en-1-one]	3	10.7	87.6 ± 4.2	82.5 ± 4.2												
O=C(/C=C/c1cccs1)c1ccc(Cl)c(Cl)c1 [1b, (E)-1-(3,4-dichlorophenyl)-3-(thiophen-2-yl)prop-2-en-1-one]			84.2 ± 4.2	> 100	85											
N#Cc1c(-c2cccs2)cc(-c2ccc(Cl)c(Cl)c2)nc1N [2b, 2-Amino-6-(3,4-dichlorophenyl)-4-(thiophen-2-yl)nicotinonitrile]	17		59.5 ± 3.1	55.5 ± 3.2		14	11	8	10	9						antimicrobial activity with B. subtilis, in words (B. subtilis): strong; antimicrobial activity with P. aeuroginosa, in words (P. aeuroginosa): strong; antimicrobial activity with C. albicans, in words (C. albicans): strong; antimicrobial activity with E. coli, in words (E. coli): moderate; antimicrobial activity with A. flavus, in words (A. flavus): moderate; antimicrobial activity with S. aureus, in words (S. aureus): moderate
CC(=O)c1c(-c2cccs2)cc(-c2ccc(O)cc2)[nH]c1=O [3a, 3-Acetyl-6-(4-hydroxyphenyl)-4-(thiophen-2-yl)pyridin-2(1H)-one]	11	39.3	53.2 ± 3.1	48.4 ± 2.7	220	9	6	4	10	5	40.9	31.6	19.0	38.5	27.8	anti-proliferative activity against HepG-2, in words (HepG-2): moderate; anti-proliferative activity against MCF-7, in words (MCF-7): moderate
CCOC(=O)c1c(-c2cccs2)cc(-c2ccc(O)cc2)[nH]c1=O [4a, Ethyl 6-(4-hydroxyphenyl)-2-oxo-4-(thiophen-2-yl)-1,2-dihydropyridine-3-carboxylate]	13	46.4	44.5 ± 2.6	41.2 ± 2.4	125	10	8	5	11	6	45.4	42.1	23.8	42.3	33.3	anti-proliferative activity against HepG-2, in words (HepG-2): moderate; anti-proliferative activity against MCF-7, in words (MCF-7): moderate
N#Cc1c(-c2cccs2)cc(-c2ccc(O)cc2)nc1O [5a, 2-hydroxy-6-(4-hydroxyphenyl)-4-(thiophen-2-yl)nicotinonitrile]	14	50.0	43 ± 2.5	38.4 ± 2.5	200	10	10	5	8	6	45.4	52.6	23.8	30.8	33.3	anti-proliferative activity against HepG-2, in words (HepG-2): moderate; anti-proliferative activity against MCF-7, in words (MCF-7): moderate
CC(=O)N1N=C(c2ccc(Cl)c(Cl)c2)CC1c1cccs1 (stereo not shown) [8b, 1-(3-(3,4-dichlorophenyl)-5-(thiophen-2-yl)-4,5-dihydro-1H-pyrazol-1-yl)ethan-1-one]	9	32.1	74.3 ± 3.5	72.6 ± 3.9	160	7	4		5	3	31.8	21.0		19.2	16.7	
Clc1ccc(C2=NN(c3ccccc3)C(c3cccs3)C2)cc1Cl (stereo not shown) [9b, 3-(3,4-dichlorophenyl)-1-phenyl-5-(thiophen-2-yl)-4,5-dihydro-1H-pyrazole]	8	28.6	48.1 ± 2.7	67.3 ± 3.7	130	6			3		27.3			11.5		
NC(=S)n1nc(-c2ccc(O)cc2)cc1-c1cccs1 [10a, 3-(4-hydroxyphenyl)-5-(thiophen-2-yl)-1H-pyrazole-1-carbothioamide]	13	46.4	39.1 ± 2.4	23.7 ± 1.7	195 to 197	13	12	8	11	9	59.1	63.1	38.1	42.3	50.0	antimicrobial activity with B. subtilis, in words (B. subtilis): moderate; antimicrobial activity with P. aeuroginosa, in words (P. aeuroginosa): moderate; antimicrobial activity with C. albicans, in words (C. albicans): moderate; antimicrobial activity with E. coli, in words (E. coli): moderate; antimicrobial activity with A. flavus, in words (A. flavus): moderate; anti-proliferative activity against HepG-2, in words (HepG-2): moderate; anti-proliferative activity against MCF-7, in words (MCF-7): moderate; antimicrobial activity with S. aureus, in words (S. aureus): moderate
Nc1nc(-c2ccc(O)cc2)cc(-c2cccs2)n1 [11a, 4-(2-amino-6-(thiophen-2-yl)pyrimidin-4-yl)phenol]	11		52.9 ± 2.9	61.1 ± 3.4		10	11	6	7	7						antimicrobial activity with B. subtilis, in words (B. subtilis): moderate; antimicrobial activity with P. aeuroginosa, in words (P. aeuroginosa): moderate; antimicrobial activity with C. albicans, in words (C. albicans): moderate; antimicrobial activity with E. coli, in words (E. coli): very strong; antimicrobial activity with A. flavus, in words (A. flavus): weak; antimicrobial activity with S. aureus, in words (S. aureus): moderate
Oc1ccc(-c2cc(-c3cccs3)n(-c3nc4nc5ccccc5nc4s3)n2)cc1 [12a, 4-(1-(thiazolo[4,5-b]quinoxalin-2-yl)-5-(thiophen-2-yl)-1H-pyrazol-3-yl)phenol]	6	21.4	74.7 ± 3.9	65 ± 3.6	250 to 252	5	3				22.7	15.8				
Oc1ccc(C2=NN(C(=S)Nc3ccccc3)C(c3cccs3)C2)cc1 (stereo not shown) [14a, 3-(4-hydroxyphenyl)-N-phenyl-5-(thiophen-2-yl)-4,5-dihydro-1H-pyrazole-1-carbothioamide]					245 to 247											
COc1cccc2c1C(=O)c1c(O)c3c(c(O)c1C2=O)C[C@@](O)(C(=O)CO)C[C@@H]3O[C@H]1C[C@H](N)[C@H](O)[C@H](C)O1 [DOX, reference compound]																IC50 (HepG-2): 4.5 ± 0.2 µM
CNC(C)C1CCC(N)C(OC2C(N)CC(N)C(OC3OCC(C)(O)C(NC)C3O)C2O)O1 (stereo not shown) [Gentamicin, reference compound]						22	19	21		18	100	100	100		100	
CC(=O)N1CCN(c2ccc(OCC3COC(Cn4ccnc4)(c4ccc(Cl)cc4Cl)O3)cc2)CC1 (stereo not shown) [Ketoconazole, reference compound]	28	100							26					100		
